From US9340532B2, “Methods and compositions for inhibiting CNKSR1” (PHUSIS THERAPEUTICS, INC., priority 2012, dated 2016)
Like-named read-outs stand apart in the source and are kept apart here.

Key:
[1] = tested on: mut-KRAS NSCLC cell lines; assay: Screening against NSCLC cell line panel, mut-KRAS lines; type: cell-based; conditions: for inhibition of mut-KRAS cell growth (in words): FIG. 3 and FIG. 5
Description: (§1) The isogenic KRAS lines harboring G12D, G12C, and G12V were obtained from Horizon Discovery labs on a one year lease. These cells were cultured in McCoys media with 10% FBS to 80% confluency. Cells were then released from flasks via trypsinization and plated into 96-well plates at an initial density range of 2000 cells per well. Cells were allowed 24 hours to attach, and then the agents were added to the culture media at a range of concentrations from 0-100 μM. Cells were incubated for 72 hours with the drugs, and then viability was assessed using an MTS viability assay. Cells were exposed to MTS reagent (Promega) dissolved in PBS (Hyclone) at a concentration of 200 μL reagent/mL media for 2 hours. Absorbance was then read at 490 nm, and viability was expressed as a percentage normalized between the negative control (no cells plated) and the condition of cells with no drug added (100% viability) normalized as the upper limit of viability.
(§2) Our panel of 30 cell lines and an extensive characterization were obtained from Dr. John Minna (UTSW). All cell lines were cultured in RPMI 1640 with 10% FBS. Cells were treated with concentrations of agents at concentrations 0.01 to 50 μM and evaluated as described above. IC50's were determined using Excelfit.

wt-KRAS NSCLC cell lines = assay: Screening against NSCLC cell line panel, wt-KRAS lines; type: cell-based; conditions: for inhibition of wt-KRAS cell growth (in words): FIG. 5
Description: as §1, §2

CNK1 PH-domain (CNKSR1) = target: T1, CNK1 PH-domain (CNKSR1) (Homo sapiens, UniProt Q969H4); assay: SPR binding assay (Biacore T100), CNK1 PH-domain; conditions: for Surface Plasmon Resonance CNKSR1 binding (RU max) / Surface Plasmon Resonance CNKSR1 stability (RU max post-injection): date 12 09 13
T1 construct: The PH-domain His-fusion proteins (CNK1 and AKT1) were expressed and immobilized on a NTA chip; made in house
T1 sequence (Q969H4 403-502 limits assumed): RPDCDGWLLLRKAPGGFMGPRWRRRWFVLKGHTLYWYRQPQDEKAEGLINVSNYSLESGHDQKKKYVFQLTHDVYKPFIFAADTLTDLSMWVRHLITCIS
Description: (§3) All interaction analyses were done with a Biacore T100 Control Software v3.2, and BIAevaluation v4.1 analysis software (Biacore). The PH-domain His-fusion proteins (CNK1 and AKT1) were expressed and immobilized on a NTA chip to a level of 10,000 response units or less. Small molecule analytes at concentrations ranging from 50 μM to 0.010 μM were injected at a high flow rate (30 μL/min) DMSO concentrations in all samples and running buffer were 1-5% (v/v).
Other docking was performed using modeling algorithms with state-of-the-art commercial drug discovery software (Schrodinger suite). […] Additionally, ligand-based approaches provided an alternative to structure based drug discovery. Ligand-based virtual screening methodologies can take into account shape and electrostatics (like ROCS) and the pharmacophoric features (acceptor, donor, hydrophobic, aromatic, etc.) of its functional groups. […] SPR interaction analyses of all other compounds was undertaken using a Biacore T100 with Control and Evaluation software kit.

[2] = Mouse pharmacokinetics (iv); type: in vivo; conditions: for clearance: in vivo
AKT1 PH-domain = target: T2, AKT1 PH-domain (Homo sapiens, UniProt P31749); assay: SPR binding assay (Biacore T100), AKT1 PH-domain; conditions: for Kd: read-out: AKT KD; for AKT KD: Table 7, curated diversity set
T2 construct: The PH-domain His-fusion proteins (CNK1 and AKT1) were expressed and immobilized on a NTA chip; made in house
T2 sequence (P31749 5-108 limits assumed): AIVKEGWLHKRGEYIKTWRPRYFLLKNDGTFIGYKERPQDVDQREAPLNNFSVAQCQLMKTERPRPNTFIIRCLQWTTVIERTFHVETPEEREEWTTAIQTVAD
Description: as §3
A commercially available docking package, GOLD (GOLD [3.2], CCDC: Cambridge, UK, 2007) was used to evaluate the docking of compounds 1-7 into the binding pocket, see e.g. Table 5. Other docking was performed using modeling algorithms with state-of-the-art commercial drug discovery software (Schrodinger suite). GLIDE was chosen as the docking algorithm used to select and optimize compounds, providing a GlideScore as a rough estimate of binding affinity that was used to rank and select the best compounds. Additionally, ligand-based approaches provided an alternative to structure based drug discovery. Ligand-based virtual screening methodologies can take into account shape and electrostatics (like ROCS) and the pharmacophoric features (acceptor, donor, hydrophobic, aromatic, etc.) of its functional groups. Inositol tetraphosphate (IP4) binding to the PH-domain of CNKSR1 provided a good starting point for shape screening. Both structure-based and ligand-based approaches were used to find novel compounds (Table 7) and to refine and improve lead compounds (Tables 8, and 9). SPR interaction analyses for Compounds 1 through 7 were performed with a Biacore 2000, using Biacore2000 Control Software v3.2 and BIAevaluation v4.1 analysis software (Biacore) as described in Mol Cancer Ther 7:2621 (2008). SPR interaction analyses of all other compounds was undertaken using a Biacore T100 with Control and Evaluation software kit.

[3] = tested on: A549 (KRAS mutant cell line); assay: Proliferation Assay A549; type: cell-based; conditions: Homo sapiens, N = 2 experiments
Description: as §1, §2

[4] = tested on: H1373 (KRAS mutant cell line); assay: Proliferation Assay H1373; type: cell-based; conditions: Homo sapiens, NCI-H1373, N = 2 experiments
Description: as §1, §2

[5] = tested on: H1975 (KRAS wildtype cell line); assay: Proliferation Assay H1975; type: cell-based; conditions: Homo sapiens, NCI-H1975, n = 1
Description: as §1, §2

[6] = tested on: H226 (KRAS wildtype cell line); assay: Proliferation Assay H226; type: cell-based; conditions: Homo sapiens, NCI-H226, n = 1
Description: as §1, §2

[7] = Table 7, read-out: IC50 mut-KRAS
[8] = Table 7, read-out: IC50 WT-KRAS
[9] = Table 6, mean of 3 mut-KRAS lines, read-out: NSCL cell line cytotoxicity IC50 mut-KRAS
[10] = Table 6, mean of 3 wt-KRAS lines, read-out: NSCL cell line cytotoxicity IC50 wt-KRAS
[11] = Table 5, read-out: Mean IC50 mut-KRAS

SMILES	Surface Plasmon Resonance CNKSR1 binding (RU max) (CNK1 PH-domain (CNKSR1)) [RU * 100/Da]	Surface Plasmon Resonance CNKSR1 stability (RU max post-injection) (CNK1 PH-domain (CNKSR1)) [RU * 100/Da]	IC50 [3] [µM]	IC50 [4] [µM]	IC50 [5] [µM]	IC50 [6] [µM]	Kd (CNK1 PH-domain (CNKSR1); Table 8, read-out: CNK KD) [µM]	Kd (AKT1 PH-domain; Table 8) [µM]	further results
O=C(O)c1ccc2c(c1)C1C=CCC1C(C(=O)O)N2 (centres unmarked) [Compound 56]	–	–	–	–	–	–	–	–	IC50 [1, 7]: > 100 µM; IC50 (wt-KRAS NSCLC cell lines; [8]): > 100 µM
Cc1ccc(-c2csc(Cn3nc(Cc4nccs4)c4ccccc4c3=O)n2)cc1 [Compound 10]	–	–	–	–	–	–	–	–	Kd (CNK1 PH-domain (CNKSR1); Table 6, read-out: CNKS KD): 4.12 µM; inhibition of mut-KRAS cell growth (in words) [1]: inhibited the growth; selectivity for mut-KRAS cells compared to wt-KRAS cells ([1]; NSCLC cell lines): approximately two fold; IC50 [1, 9]: 34 µM; inhibition of wt-KRAS cell growth (in words) (wt-KRAS NSCLC cell lines): also inhibited; IC50 (wt-KRAS NSCLC cell lines; [10]): 46 µM; t1/2β [2]: 4.08 h; clearance [2]: 119 mL/min/kg
N#Cc1cnn(-c2ccccc2)c1NC(=O)CSc1nnc(-c2ccco2)n1-c1ccc(F)cc1 [Compound 122]	–	–	–	–	–	–	–	–	IC50 [1, 11]: > 50 µM
CCNC(=O)Cc1nn(Cc2nc(-c3ccc(C)cc3)cs2)c(=O)c2ccccc12 [Compound 78]	0.224	−0.065	25	45	60	60	–	–	Kd (CNK1 PH-domain (CNKSR1); Table 6, read-out: CNKS KD): 0.65 µM; Kd (AKT1 PH-domain; Table 6): 2.53 µM; t1/2β [2]: 0.467 h; clearance [2]: 34 mL/min/kg
Cc1ccc(-c2csc(Cn3nc(CC=O)c4ccccc4c3=O)n2)cc1 [Compound 79]	–	–	–	–	–	–	–	–	Kd (CNK1 PH-domain (CNKSR1); Table 6, read-out: CNKS KD): 4.2 µM; t1/2β [2]: 0.583 h; clearance [2]: 30 mL/min/kg
CSc1sc(C#N)c(C)c1-c1ccn(S(=O)(=O)c2ccc(Cl)cc2)n1 [Compound 117]	–	–	–	–	–	–	–	–	IC50 [1, 11]: 21.9 ± 5.7 µM
Cc1ccc(-c2nc(SCC(=O)O)c3c(=O)n(C)c(=O)n(C)c3n2)cc1 [Compound 61]	–	–	–	–	–	–	–	–	IC50 [1, 7]: > 100 µM; IC50 (wt-KRAS NSCLC cell lines; [8]): > 100 µM
CSc1c(NS(=O)(=O)c2cccs2)cc(O)c(O)c1/C=C/C(=O)O [Compound 106, (2E)-3-[2,3-dihydroxy-6-(methylsulfanyl)-5-(thiopliene-2-sulfonamido)phenyl]prop-2-enoic acid]	−0.928	0.511	55	58	> 100	70	0.614	13.5	–
Cc1ccc(-c2csc(Cn3nc(CC4OCC(=O)O4)c4ccccc4c3=O)n2)cc1 (centres unmarked) [Compound 11]	–	–	–	–	–	–	–	–	Kd (CNK1 PH-domain (CNKSR1); Table 6, read-out: CNKS KD): 0.27 µM; Kd (AKT1 PH-domain; Table 6): 2.53 µM; inhibition of mut-KRAS cell growth (in words) [1]: inhibited the growth; IC50 [1, 9]: 45 µM; inhibition of wt-KRAS cell growth (in words) (wt-KRAS NSCLC cell lines): also inhibited; IC50 (wt-KRAS NSCLC cell lines; [10]): 56 µM
CCOC(=O)CCc1cc(NS(=O)(=O)c2cccs2)c2c(c1OC)OCO2 [Compound 85, ethyl 3-(4-methoxy-7-(thiophene-2-sulfonamido)benzo[d][1,3]dioxol-5-yl)propanoate]	1.026	1.515	> 100	> 100	> 100	> 100	> 500	> 500	–
Cc1ccc(-c2csc(Cn3nc(CC(=O)N4CCN(C)CC4)c4ccccc4c3=O)n2)cc1 [Compound 123]	–	–	–	–	–	–	–	–	t1/2β [2]: 5.45 h; clearance [2]: 31 mL/min/kg
O=C(CSc1nnnn1-c1cccc(Cl)c1)c1cc2ccccc2o1 [Compound 121]	–	–	–	–	–	–	–	–	IC50 [1, 11]: 46.7 ± 3.3 µM
CCOC(=O)/C=C/c1c(O)c(O)cc(NS(=O)(=O)c2cccs2)c1SC [Compound 105, ethyl (2E)-3-[2,3-dihydroxy-6-(methylsulfanyl)-5-(thiophene-2-sulfonamido)phenyl]prop-2-enoate]	−0.676	−0.197	100	42	> 100	70	2.86	6.22	–
COc1cc(NS(=O)(=O)c2cccs2)c(SC)c(/C=C/C(=O)O)c1O [Compound 104, (2E)-3-[2-hydroxy-3-methoxy-6-(methylsulfanyl)-5-(thiophene-2-sulfonamido)phenyl]prop-2-enoic acid]	2.132	2.049	60	82	> 100	75	1.56	4.8	–
Cc1ccc(-c2csc(Cn3nc(NS(=O)(=O)c4cccs4)c4ccccc4c3=O)n2)cc1 [Compound 5]	−0.695	−0.158	90	> 100	80	> 100	–	–	Kd (CNK1 PH-domain (CNKSR1); Table 6, read-out: CNKS KD): 51.3 µM; Kd (AKT1 PH-domain; Table 6): 34.2 µM
O=S(=O)(Nc1n[nH]c(SCc2ccc(Cl)cc2)n1)c1ccc(-c2ccccn2)s1 [Compound 118]	–	–	–	–	–	–	–	–	IC50 [1, 11]: 49.3 ± 0.6 µM
CCOC(=O)/C=C/c1c(O)c(OC)cc(N)c1SC [Compound 107, ethyl (E)-3-(5-amino-2-hydroxy-3-methoxy-6-methylsulfanylphenyl)prop-2-enoate]	−0.174	−0.083	45	45	95	60	125	286	–
O=C(O)COc1cc(OCC(=O)O)c2c3c(c(=O)oc2c1)CCCC3 [Compound 76]	–	–	–	–	–	–	–	–	AKT KD (AKT1 PH-domain): Bound; IC50 [1, 7]: > 100 µM; IC50 (wt-KRAS NSCLC cell lines; [8]): > 100 µM
O=C(O)CSc1cc(NS(=O)(=O)c2cccs2)c2ccccc2c1O [Compound 12]	–	–	–	–	–	–	–	–	AKT KD (AKT1 PH-domain): Bound; inhibition of mut-KRAS cell growth (in words) [1]: more potently than compound 7 or its analogs; IC50 [1, 7]: 17 µM; inhibition of wt-KRAS cell growth (in words) (wt-KRAS NSCLC cell lines): more potently than compound 7 or its analogs; IC50 (wt-KRAS NSCLC cell lines; [8]): 12 µM
COc1cc(N)c(SC)c(/C=C/C(=O)O)c1O [Compound 108, (2E)-3-[3-amino-6-hydroxy-5-methoxy-2-(methylsulfanyl)phenyl]prop-2-enoic acid]	−0.024	0.056	30	38	100	55	72.5	133	–
Cn1c(Cc2nn(C)c(=O)c3ccccc23)nnc1SCC(=O)c1ccc(Cl)cc1Cl [Compound 119]	–	–	–	–	–	–	–	–	IC50 [1, 11]: > 50 µM
CCOC(=O)/C=C/c1c(O)c(O)cc(N)c1SC [Compound 109, ethyl (2E)-3-[3-amino-5,6-dihydroxy-2-(methylsulfanyl)phenyl]prop-2-enoate]	1.527	0.168	> 100	> 100	> 100	> 100	19.2	140	–
